Measured values published in patent publication US20060281755A1, “SYNERGISTIC MODULATION OF FLT3 KINASE USING AMINOPYRIMIDINES KINASE MODULATORS” (priority 2005, published 2006).

Legend:
MV4-11 AML cells = assay: 72-hour cell proliferation assay and combination index analysis, MV4-11; assay type: cell-based, human; conditions: with single sub-IC50 dose of FLT3 inhibitor Compound A (50 nM)
MV4-11 cells = assay: Annexin V staining (apoptosis) in MV4-11 cells; assay type: cell-based, human; conditions: combination (fixed ratio 4:1) versus agent alone, 48 hours
Excerpt: The ultimate goal of treatment for FLT3 related disorders is to kill the disease causative cells and to cause regression of disease. […] Annexin V binding to phosphotidyl serine that has translocated from the inner leaflet of the plasma membrane to the outer leaflet of the plasma membrane and is a well established way to measure apoptosis of cells. See van Engeland M., L. J. Nieland, et al. (1998) “Annexin V-affinity assay: a review on an apoptosis detection system based on phosphatidylserine exposure.” Cytometry. 31(1):1-9.
After the compound incubations, treated cells were harvested and stained with Annexin V-PE and 7-AAD using the Guava Nexin apoptosis kit according to the protocol in the Biological Activity Measurements section hereafter. Annexin V staining peaks at 60% because cells late in apoptosis begin to fall apart and are considered debris. […] Statistical analysis using the above described method of Chou and Talalay was also performed to determine the synergy of the combination. […] The magnitude of the synergistic induction of apoptosis of MV4-11 cells by the combination of an FTI and a FLT3 inhibitor could not be predicted by those skilled in the art. […]
Annexin V Staining. […] All annexin positive cells were considered apoptotic and percent Annexin positive cells was calculated.

MV4-11 tumor xenografts = assay: MV4-11 human tumor xenograft regression model in nude mice; assay type: in vivo; conditions: 50 mg/kg bid oral
Experimental: Female athymic nude mice (CD-1, nu/nu, 9-10 weeks old) were obtained from Charles River Laboratories (Wilmington, Mass.) and were maintained according to NIH standards. All mice were group housed (5 mice/cage) under clean-room conditions in sterile micro-isolator cages on a 12-hour light/dark cycle in a room maintained at 21-22° C. and 40-50% humidity. Mice were fed irradiated standard rodent diet and water ad libitum. All animals were housed in a Laboratory Animal Medicine facility that is fully accredited by the American Association for Assessment and Accreditation of Laboratory Animal Care (AAALAC). […]
The time course of the inhibitory effects of FLT3 inhibitor compounds on the growth of MV4-11 tumors is illustrated in FIG. 1. […] Percent inhibition (% 1) of tumor growth was calculated versus tumor growth in the vehicle-treated Control group on the last study day. Statistical significance versus Control was determined by Analysis of Variance (ANOVA) followed by Dunnett's t-test: * p<0.05; ** p<0.01.
(See FIG. 2). […] Percent Inhibition was calculated versus the mean tumor weight in the vehicle-treated control group. Statistical significance versus Control was determined by ANOVA followed by Dunnett's t-test: ** p<0.01. […]

Cn1cncc1C(N)(c1ccc(Cl)cc1)c1ccc2c(c1)c(-c1cccc(Cl)c1)cc(=O)n2C (single isomer, unassigned; (+)) [Tipifarnib, (+)-6-[amino(4-chlorophenyl)(1-methyl-1H-imidazol-5-yl)methyl]-4-(3-chlorophenyl)-1-methyl-2(1H)-quinolinone] was tested, and the “increase in potency of Tipifarnib” value (MV4-11 AML cells) was “more than 3 fold”, the “shift of EC50 for the induction of annexin V staining” value (MV4-11 cells) was “more than eight-fold” and the “effect on tumor growth as single agent” value (MV4-11 tumor xenografts; 9 days) was “ineffective”. For the same molecule, the “effect on tumor growth as single agent” value (MV4-11 tumor xenografts; 16 days) was “ineffective”.
